Experiment in all cases: Yeast growth assay, specificity profiling
What all share (format): cell-based
Common to all, as to set-up: key: “−” indicates no growth restoration i.e. no activity against the particular kinase; “+”, “++”, and “+++” indicate activity detected by restoration of growth, classified into three categories of potency; “+”, “++”, and “+++” indicate activity detected by restoration of growth, classified into three categories of potency; “+”, “++”, and “+++” indicate activity detected by restoration of growth, classified into three categories of potency
What all share (details): 7 concentrations between 0.2 and 100 μM

The target in test [1] is T1, CSF-1R (Homo sapiens, UniProt P07333).
T1 construct: expressed in transfected cells; host or cells: yeast
The gist of the method: (§1)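 Yeast positive-selection assay: RTK plasmid expression switched on by galactose suppresses growth; kinase inhibitors restore it. Potency classes derive from peak growth rescue and its concentration across a 0.2–100 μM, 7-point series.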

Test [2] has as its target T2, EGFR (L858R) (Homo sapiens, UniProt P00533, L858R).
T2 construct: expressed in transfected cells; host or cells: yeast
The gist of the method:
as §1

In test [3] the target is T3, ErbB2 (Homo sapiens, UniProt P04626).
T3 construct: expressed in transfected cells; host or cells: yeast
The gist of the method: as §1

For test [4], the target named is T4, FGFR-1 (Homo sapiens, UniProt P11362).
T4 construct: expressed in transfected cells; host or cells: yeast
T4 sequence (P11362 22-822): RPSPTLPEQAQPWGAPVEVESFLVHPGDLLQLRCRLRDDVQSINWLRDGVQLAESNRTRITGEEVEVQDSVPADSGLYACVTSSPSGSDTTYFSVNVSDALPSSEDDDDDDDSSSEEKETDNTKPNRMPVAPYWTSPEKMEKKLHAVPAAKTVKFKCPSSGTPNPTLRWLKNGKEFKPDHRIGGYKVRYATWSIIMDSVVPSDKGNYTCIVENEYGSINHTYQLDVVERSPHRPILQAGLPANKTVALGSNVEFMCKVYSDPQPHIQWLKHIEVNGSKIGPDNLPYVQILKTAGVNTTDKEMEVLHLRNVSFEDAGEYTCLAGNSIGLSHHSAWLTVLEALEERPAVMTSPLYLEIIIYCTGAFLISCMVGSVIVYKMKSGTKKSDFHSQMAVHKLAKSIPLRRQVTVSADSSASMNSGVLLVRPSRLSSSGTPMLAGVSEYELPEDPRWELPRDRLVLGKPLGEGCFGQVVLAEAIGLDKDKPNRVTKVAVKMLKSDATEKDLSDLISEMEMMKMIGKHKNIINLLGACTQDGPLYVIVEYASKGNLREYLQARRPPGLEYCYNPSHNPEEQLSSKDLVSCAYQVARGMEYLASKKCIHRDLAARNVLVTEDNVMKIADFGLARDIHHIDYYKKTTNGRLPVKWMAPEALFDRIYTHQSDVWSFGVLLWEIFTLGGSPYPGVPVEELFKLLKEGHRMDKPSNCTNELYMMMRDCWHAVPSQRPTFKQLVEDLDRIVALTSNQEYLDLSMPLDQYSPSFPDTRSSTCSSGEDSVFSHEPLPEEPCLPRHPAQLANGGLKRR
The method in brief:
as §1

Test [5] deals with T5, FGFR-2 (Homo sapiens, UniProt P21802).
T5 construct: expressed in transfected cells; host or cells: yeast
T5 sequence (P21802 22-821): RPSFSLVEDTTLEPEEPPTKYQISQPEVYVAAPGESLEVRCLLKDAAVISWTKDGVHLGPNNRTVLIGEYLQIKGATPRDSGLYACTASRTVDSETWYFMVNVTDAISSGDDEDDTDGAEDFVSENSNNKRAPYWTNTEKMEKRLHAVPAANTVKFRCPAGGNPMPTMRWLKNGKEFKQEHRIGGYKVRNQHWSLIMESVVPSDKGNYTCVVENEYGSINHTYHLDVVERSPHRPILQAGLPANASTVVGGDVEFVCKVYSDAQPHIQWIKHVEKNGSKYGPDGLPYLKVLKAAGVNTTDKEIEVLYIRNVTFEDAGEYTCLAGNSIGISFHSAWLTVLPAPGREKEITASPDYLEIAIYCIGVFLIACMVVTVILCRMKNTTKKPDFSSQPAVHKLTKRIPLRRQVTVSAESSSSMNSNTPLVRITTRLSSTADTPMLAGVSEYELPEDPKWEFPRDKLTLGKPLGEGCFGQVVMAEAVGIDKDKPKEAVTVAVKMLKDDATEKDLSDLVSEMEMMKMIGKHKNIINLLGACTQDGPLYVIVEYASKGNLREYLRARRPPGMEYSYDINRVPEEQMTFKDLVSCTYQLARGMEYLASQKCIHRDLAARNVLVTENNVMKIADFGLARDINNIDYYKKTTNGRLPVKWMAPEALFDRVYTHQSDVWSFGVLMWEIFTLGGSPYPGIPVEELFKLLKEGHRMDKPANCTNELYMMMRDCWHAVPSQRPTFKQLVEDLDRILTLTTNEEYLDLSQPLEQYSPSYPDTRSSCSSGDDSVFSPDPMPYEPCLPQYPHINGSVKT
The method in brief: as §1

Test [6] addresses T6, FGFR-3 (Homo sapiens, UniProt P22607).
T6 construct: expressed in transfected cells; host or cells: yeast
The method in brief:
as §1

In test [7] the target is T7, FGFR-4 (Homo sapiens, UniProt P22455).
T7 construct: expressed in transfected cells; host or cells: yeast
T7 sequence (P22455 22-802): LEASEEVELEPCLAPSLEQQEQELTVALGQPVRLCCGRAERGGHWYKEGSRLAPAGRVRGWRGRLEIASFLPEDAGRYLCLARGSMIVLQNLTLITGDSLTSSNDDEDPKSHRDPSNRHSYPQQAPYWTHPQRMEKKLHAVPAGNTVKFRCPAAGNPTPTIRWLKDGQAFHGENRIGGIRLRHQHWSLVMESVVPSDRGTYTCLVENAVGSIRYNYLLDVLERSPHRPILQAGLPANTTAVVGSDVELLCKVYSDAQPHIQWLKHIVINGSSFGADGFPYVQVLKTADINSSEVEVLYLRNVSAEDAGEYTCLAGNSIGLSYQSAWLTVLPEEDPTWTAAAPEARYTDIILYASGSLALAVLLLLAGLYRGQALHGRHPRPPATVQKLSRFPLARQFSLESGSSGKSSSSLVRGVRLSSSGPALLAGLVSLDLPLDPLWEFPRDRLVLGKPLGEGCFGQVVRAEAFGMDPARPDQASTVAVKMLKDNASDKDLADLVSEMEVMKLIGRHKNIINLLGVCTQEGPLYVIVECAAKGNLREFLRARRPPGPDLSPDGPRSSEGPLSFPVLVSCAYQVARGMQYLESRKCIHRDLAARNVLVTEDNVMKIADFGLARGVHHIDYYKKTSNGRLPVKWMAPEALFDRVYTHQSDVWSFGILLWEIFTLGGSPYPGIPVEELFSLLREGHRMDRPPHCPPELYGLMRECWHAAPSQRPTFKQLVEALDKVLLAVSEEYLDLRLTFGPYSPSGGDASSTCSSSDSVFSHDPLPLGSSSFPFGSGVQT
The method in brief:
as §1

Test [8] deals with T8, KIT (Homo sapiens, UniProt P10721).
T8 construct: expressed in transfected cells; host or cells: yeast
T8 sequence (P10721 26-976): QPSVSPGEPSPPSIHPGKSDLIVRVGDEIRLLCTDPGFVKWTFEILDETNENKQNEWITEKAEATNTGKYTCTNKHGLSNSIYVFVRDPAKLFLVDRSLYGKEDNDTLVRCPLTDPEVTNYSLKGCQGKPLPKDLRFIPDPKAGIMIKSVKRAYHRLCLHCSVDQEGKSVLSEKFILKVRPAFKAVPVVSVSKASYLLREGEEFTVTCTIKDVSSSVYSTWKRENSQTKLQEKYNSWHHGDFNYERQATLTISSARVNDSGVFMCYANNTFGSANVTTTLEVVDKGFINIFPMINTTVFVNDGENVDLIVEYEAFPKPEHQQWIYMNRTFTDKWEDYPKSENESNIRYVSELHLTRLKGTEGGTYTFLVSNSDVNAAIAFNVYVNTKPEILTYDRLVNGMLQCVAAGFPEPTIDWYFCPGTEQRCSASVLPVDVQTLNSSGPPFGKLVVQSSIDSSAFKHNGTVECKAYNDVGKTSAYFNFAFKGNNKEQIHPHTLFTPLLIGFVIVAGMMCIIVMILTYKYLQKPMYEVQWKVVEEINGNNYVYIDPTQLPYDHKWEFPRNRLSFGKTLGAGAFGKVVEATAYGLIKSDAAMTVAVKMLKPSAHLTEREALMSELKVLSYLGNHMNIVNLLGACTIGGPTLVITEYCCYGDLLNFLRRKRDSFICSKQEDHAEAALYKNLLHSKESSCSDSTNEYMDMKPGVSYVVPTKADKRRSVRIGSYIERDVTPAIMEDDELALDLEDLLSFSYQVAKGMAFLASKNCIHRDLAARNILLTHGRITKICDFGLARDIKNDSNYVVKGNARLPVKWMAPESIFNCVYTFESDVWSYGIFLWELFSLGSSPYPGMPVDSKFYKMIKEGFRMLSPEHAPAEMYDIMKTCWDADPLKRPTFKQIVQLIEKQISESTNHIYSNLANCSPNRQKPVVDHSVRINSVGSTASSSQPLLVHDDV
The method in brief:
as §1

Test [9] concerns the target T9, PDGFRa (Homo sapiens, UniProt P16234).
T9 construct: expressed in transfected cells; host or cells: yeast
The method in brief: as §1

The target of test [10] is T10, PDGFRb (Homo sapiens, UniProt P09619).
T10 construct: expressed in transfected cells; host or cells: yeast
T10 sequence (P09619 33-1106): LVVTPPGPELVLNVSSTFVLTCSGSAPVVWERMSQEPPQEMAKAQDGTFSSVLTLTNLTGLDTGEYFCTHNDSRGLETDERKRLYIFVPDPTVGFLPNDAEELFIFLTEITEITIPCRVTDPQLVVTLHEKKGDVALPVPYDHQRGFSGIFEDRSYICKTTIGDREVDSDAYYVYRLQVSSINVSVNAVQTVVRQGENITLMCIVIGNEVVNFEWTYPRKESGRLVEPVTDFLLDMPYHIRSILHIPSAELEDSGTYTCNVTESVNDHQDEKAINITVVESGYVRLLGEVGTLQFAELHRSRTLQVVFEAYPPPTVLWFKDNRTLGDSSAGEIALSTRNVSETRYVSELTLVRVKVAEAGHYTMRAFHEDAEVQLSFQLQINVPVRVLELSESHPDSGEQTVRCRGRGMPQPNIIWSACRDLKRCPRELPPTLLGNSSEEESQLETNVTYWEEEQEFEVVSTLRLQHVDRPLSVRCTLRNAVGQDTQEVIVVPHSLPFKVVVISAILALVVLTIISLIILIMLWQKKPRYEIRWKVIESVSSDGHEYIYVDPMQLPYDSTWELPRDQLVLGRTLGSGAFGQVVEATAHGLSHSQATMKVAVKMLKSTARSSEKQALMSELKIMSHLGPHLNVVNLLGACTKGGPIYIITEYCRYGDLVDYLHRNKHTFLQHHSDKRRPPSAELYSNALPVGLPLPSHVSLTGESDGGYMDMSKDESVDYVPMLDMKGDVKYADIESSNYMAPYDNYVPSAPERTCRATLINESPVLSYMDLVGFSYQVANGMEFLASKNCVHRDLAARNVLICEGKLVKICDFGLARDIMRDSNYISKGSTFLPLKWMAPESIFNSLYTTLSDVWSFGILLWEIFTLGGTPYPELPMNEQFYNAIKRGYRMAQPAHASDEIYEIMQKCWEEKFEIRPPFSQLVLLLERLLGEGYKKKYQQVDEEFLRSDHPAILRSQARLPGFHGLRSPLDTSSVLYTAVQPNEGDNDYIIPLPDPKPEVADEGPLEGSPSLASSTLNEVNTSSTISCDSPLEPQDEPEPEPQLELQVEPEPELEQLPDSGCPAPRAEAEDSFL
The gist of the method: as §1
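Throughout, for EGFR (L858R) growth restoration: Parenthesized + marks a result obtained in a different yeast background.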

For `Cc1nccn2c(Nc3cccc(F)c3)c(-c3ccccc3)nc12` [compound 44, (3-Fluoro-phenyl)-(8-methyl-2-phenyl-imidazo[1,2-a]pyrazin-3-yl)-amine], in test [1], the CSF-1R growth restoration entry was “−”. Also, the “EGFR (L858R) growth restoration” value in test [2] is given as “+”. Also, the ErbB2 growth restoration entry in [3] is “−”. Moreover, the FGFR-1 growth restoration entry in test [4] is reported as “−”. Also, in [5], the FGFR-2 growth restoration result is listed as “−”. In addition, the FGFR-3 growth restoration result in test [6] is given as “−”. In addition, in test [7], the FGFR-4 growth restoration result is recorded as “−”. Besides, in test [8], the KIT growth restoration entry is “−”. Also, in test [9], the PDGFRa growth restoration entry is “−”. In [10], the PDGFRb growth restoration entry is listed as “−”.

As to `Cc1nccn2c(Nc3ccc(F)c(F)c3)c(-c3ccccc3)nc12` [compound 45, (3,4-Difluoro-phenyl)-(8-methyl-2-phenyl-imidazo[1,2-a]pyrazin-3-yl)-amine], in test [1], the CSF-1R growth restoration result is “−”. Besides, in test [2], the “EGFR (L858R) growth restoration” value is “−”. The ErbB2 growth restoration result in [3] is on record as “−”. In test [4], the FGFR-1 growth restoration entry was “−”. Moreover, the FGFR-2 growth restoration entry in [5] is “−”. Moreover, in test [6], the FGFR-3 growth restoration result was “−”. Also, the FGFR-4 growth restoration entry in [7] is “−”. Also, in test [8], the KIT growth restoration result is recorded as “−”. The PDGFRa growth restoration result in test [9] is reported as “−”. Besides, the PDGFRb growth restoration result in test [10] is on record as “−”.

The values above are taken from patent US20070149535A1, “Protein kinase inhibitors” (ONCALIS AG, priority 2004, published 2007).
